Results published in article PMC5299686, “Betanodavirus-like particles enter host cells via clathrin-mediated endocytosis in a cholesterol-, pH- and cytoskeleton-dependent manner” (Veterinary Research, 2017).
Where two headings read alike, the source gives them in different places.

Tests used:
[1] = tested on: SB cells; test: Cytotoxicity assay (CellTiter 96 AQueous One Solution Cell Proliferation Assay)
Experimental: To optimize the working concentration of the inhibitors, the cytotoxicity of the drugs to SB cells were evaluated. SB cells grown in 96-well plates were treated with the inhibitors at different concentrations for 4 h. Then cell viability was assayed using CellTiter 96® AQueous One Solution Cell Proliferation Assay (Promega, USA) according to the manufacturer’s instructions.

[2] = tested on: RBS entry into SB cells; test: VLP (RBS) entry assay with inhibitor or siRNA perturbation, ELISA quantitation; format: cell-based, Lates calcarifer; settings: for change of RBS entry efficiency compared with untreated cells: 2 h entry
Experimental: (§1) Virus-like particles entry (invasion) assays were performed using SB or other indicated cells as described. In brief, the cells were seeded on coverslips in 12-well plates or cultured in 96-well plates for 18 or 24 h to achieve 70% confluence, pretreated with the indicated inhibitors at the indicated temperature (26 °C for fish cells, 28 °C for insect cells, and 37 °C for mammalian cells) and concentration (Table 1) for 1 h, and then incubated with RBS or CGV in the presence of the inhibitors for 1 h on ice. After that, the cells were washed three times with pre-cooling PBS, shifted to 28 °C to start entry, and visualized directly by fluorescent microscopy for CGV entry kinetics, or fixed for IFA followed by fluorescent microscopy, or collected for ELISA at the indicated times. In the untreated (positive) or mock-infected (negative) controls, the cells were subjected to no inhibitor treatment or no VLP incubation respectively. The entry assay of each inhibitor was repeated at least three times.
Six wells of cells in a 96-well plate treated with the same condition in entry assays were washed thoroughly with PBS, lysed with 20 μL of lysis buffer in each well and combined as one sample. Endogenous β-actin was used as an internal normalization control for ELISA. Three-hundred microliters of 30-fold diluted lysate for VLP detection or 100-fold diluted lysate for β-actin detection were coated equally in three wells of a 96-well microtiter plate at 4 °C overnight, respectively. The plate was conducted to room temperature and washed three times with 200 μL PBS. After blocking with 5% bovine serum albumin (BSA) in PBS for 1 h at room temperature and washing three times (all washes below indicate triplicate washings) with 200 μL PBS containing 0.05% Tween20 (PBST), the plate was incubated with in-house produced mouse anti-VLP antiserum at a dilution of 1:2000 in PBS for 1 h. The plate was washed and peroxidase-conjugated goat anti-mouse IgG (Sigma) at a dilution of 1:3000 in PBS was added and incubated for 1 h. Following thorough washings (five times), 100 μL of OPD substrate (Sigma) was added and the color development was conducted at room temperature. The reaction was stopped by the addition of 4 M sulfuric acid and the absorbance at 492 nm was determined. The OD492 of each sample including treated and untreated cells was normalized with the corresponding OD492 of β-actin to obtain the relative VLP quantity. The entry efficiency was generated as the percentage of treated cells with incorporated VLP relative to that for untreated cells. The VLP entry efficiency of untreated cells was arbitrarily set as 100%. The data shown are the mean ± SD of the results from three independent experiments. Statistical differences of VLP content from different groups were assessed by paired Student’s t tests. Numerical results are presented as mean ± SD with 95% confidence intervals and p < 0.05 was considered statistically significant (*, p < 0.05; **, p < 0.01).

[3] = tested on: RBS entry into SB cells; test: VLP (RBS) entry assay, IFA and fluorescent microscopy; format: cell-based, Lates calcarifer; settings: at the working concentrations (CPZ 1 to 70 μM; dynasore 1, 10, 80 μM; siRNA 48 h post-transfection)
Experimental: (§2) Virus-like particles entry (invasion) assays were performed using SB or other indicated cells as described. In brief, the cells were seeded on coverslips in 12-well plates or cultured in 96-well plates for 18 or 24 h to achieve 70% confluence, pretreated with the indicated inhibitors at the indicated temperature (26 °C for fish cells, 28 °C for insect cells, and 37 °C for mammalian cells) and concentration (Table 1) for 1 h, and then incubated with RBS or CGV in the presence of the inhibitors for 1 h on ice. […]
(§3) Cells were washed twice with PBS, fixed with 4% paraformaldehyde for 15 min, permeated with 0.2% Triton X-100 for 10 min, and then blocked with 5% BSA for 1 h. […] For identification of entry and trafficking of RBS in cells, images were acquired using a laser scanning confocal fluorescence microscope (TCS-SP5, Leica Microsystems Wetzlar GmbH Inc., Germany). Images were acquired randomly from 5 different fields of view per coverslip to get more than 20 cells and to allow observing the signals of targets and nuclei fluorescence by Leica Application Suite (2.6.0 build 7266). […] The results are expressed as the mean ± standard deviation (SD).

[4] = tested on: CGV entry into SB cells; test: CGV entry assay, ELISA quantitation; format: cell-based, Lates calcarifer
Experimental: as §1, with “In the untreated (positive) or mock-infected (negative) controls, the cells were subjected to no inhibitor treatment or no VLP incubation respectively. The entry assay of each inhibitor was repeated at least three times.” left out
Six wells of cells in a 96-well plate treated with the same condition in entry assays were washed thoroughly with PBS, lysed with 20 μL of lysis buffer in each well and combined as one sample. […] The reaction was stopped by the addition of 4 M sulfuric acid and the absorbance at 492 nm was determined. The OD492 of each sample including treated and untreated cells was normalized with the corresponding OD492 of β-actin to obtain the relative VLP quantity. […] Statistical differences of VLP content from different groups were assessed by paired Student’s t tests. […]

[5] = tested on: RBS entry into SSN-1 cells; test: VLP entry assay and IFA on SSN-1 cells; format: cell-based, Channa striatus; settings: SSN-1 cells pretreated with CPZ for 1 h
Experimental: as §2, §3

[6] = tested on: RBS entry into GB cells; test: VLP entry assay and IFA on GB cells; format: cell-based, Epinephelus coioides; settings: GB cells pretreated with CPZ for 1 h
Experimental: as §2, §3

[7] = Lates calcarifer, read-out: RBS entry blocked (inhibited)
[8] = 40 μM inhibitor alone, SB cells, ELISA
[9] = 1 mM inhibitor, SB cells, ELISA

C=C1[C@@H](C)[C@H]2[C@H](Cc3ccccc3)NC(=O)[C@]23[C@H](OC(C)=O)/C=C/[C@@](C)(O)C(=O)[C@@H](C)C/C=C/[C@H]3[C@@H]1O [CytD, cytochalasin D]
MC, max concentration that can be used without cytotoxicity ([1]; SB cells, 4 h treatment): 77.8 µM | inhibition at 1 µM [2, 7]: 83.2% | inhibition at 10 µM [2, 7]: 96% | inhibition at 77.8 µM [2, 7]: 96.5%

CN(C)C[C@H](O)Cn1c2ccc(Br)cc2c2cc(Br)ccc21 (racemic) [wiskostatin]
MC, max concentration that can be used without cytotoxicity ([1]; SB cells, 4 h treatment): 50 µM | inhibition at 1 µM [2, 7]: 77.9% | inhibition at 10 µM [2, 7]: 84.6% | inhibition at 50 µM [2, 7]: 94.2%

CCN(CC)CCCC(C)Nc1nc(C)cc(Nc2ccc3nc(C)cc(N)c3c2)n1 (centres unmarked) [NSC23766]
MC, max concentration that can be used without cytotoxicity ([1]; SB cells, 4 h treatment): 40 µM | change of RBS entry efficiency compared with untreated cells [2, 8]: no statistically significant change

O=C(N/N=C/c1ccc(O)c(O)c1)c1cc2ccccc2cc1O [dynasore]
MC, max concentration that can be used without cytotoxicity ([1]; SB cells, 4 h treatment): 800 µM | fluorescent signal of RBS in cells (IFA) compared with untreated cells [3]: significantly reduced | VLP entry efficiency (untreated cells = 100%) ([2]; 1 μM inhibitor, SB cells, ELISA): 71.4% | VLP entry efficiency (untreated cells = 100%) ([2]; 10 μM inhibitor, SB cells, ELISA): 48.5% | VLP entry efficiency (untreated cells = 100%) ([2]; 80 μM inhibitor, SB cells, ELISA): 40%

O=c1c(-c2ccc(O)cc2)coc2cc(O)cc(O)c12 [genistein]
MC, max concentration that can be used without cytotoxicity ([1]; SB cells, 4 h treatment): 100 µM | entry quantity of VLP compared with mock-treated control ([2]; 100 μM inhibitor, SB cells, ELISA): 88%

COC[C@H]1OC(=O)c2coc3c2[C@@]1(C)C1=C(C3=O)[C@@H]2CCC(=O)[C@@]2(C)C[C@H]1OC(C)=O [wortmannin]
MC, max concentration that can be used without cytotoxicity ([1]; SB cells, 4 h treatment): 50 µM | inhibition at 1 µM [2, 7]: -1.4% | inhibition at 10 µM [2, 7]: 0.82% | inhibition at 50 µM [2, 7]: 23%

CC(C)CCC[C@@H](C)[C@H]1CC[C@H]2[C@@H]3CC=C4C[C@@H](O)CC[C@]4(C)[C@H]3CC[C@]12C [cholesterol]
effect of cholesterol supplement on CGV entry ([4]; SB cells not treated with MβCD): did not enhance the entry of CGV | CGV entry efficiency after cholesterol replenishment compared with mock-treated cells ([4]; SB cells pretreated with 5 mM MβCD, then exogenous cholesterol 0.8 μg/μL for 1 h): 57%

CCN(CC)CCCC(C)Nc1ccnc2cc(Cl)ccc12 (centres unmarked) [chloroquine]
MC, max concentration that can be used without cytotoxicity ([1]; SB cells, 4 h treatment): 1000 µM | RBS entry blocked (inhibited) [2, 9]: totally block | inhibition at 10 µM [2, 7]: > 70%

O=S(=O)(c1cccc2c(I)cccc12)N1CCCNCC1 [ML-7]
MC, max concentration that can be used without cytotoxicity ([1]; SB cells, 4 h treatment): 40 µM | change of RBS entry efficiency compared with untreated cells [2, 8]: no statistically significant change

Cl.N [NH4Cl, ammonia chloride]
MC, max concentration that can be used without cytotoxicity [1]: 50 000 μM | VLP entry efficiency (untreated cells = 100%) ([2]; 50 mM inhibitor, SB cells, ELISA): 25%

CC(=O)c1c(O)c(C)c(O)c(Cc2c(O)c3c(c(C(=O)/C=C/c4ccccc4)c2O)OC(C)(C)C=C3)c1O [rottlerin]
MC, max concentration that can be used without cytotoxicity ([1]; SB cells, 4 h treatment): 40 µM | change of RBS entry efficiency compared with untreated cells [2, 8]: no statistically significant change

CN(C)CCCN1c2ccccc2Sc2ccc(Cl)cc21 [CPZ, chlorpromazine]
MC, max concentration that can be used without cytotoxicity ([1]; SB cells, 4 h treatment): 700 µM | fluorescent signal of RBS in cells (IFA) compared with untreated cells [3]: significantly reduced | VLP entry efficiency in treated compared with untreated samples (IFA) [5]: dramatically decreased | VLP entry efficiency in treated compared with untreated samples (IFA) [6]: dramatically decreased | change of RBS entry efficiency compared with untreated cells ([2]; 7 μM inhibitor alone, SB cells, ELISA): dramatically reduced | VLP entry efficiency (untreated cells = 100%) ([2]; 70 μM inhibitor, SB cells, ELISA): 5% | inhibition at 1 µM [2, 7]: 70% | inhibition at 7 µM [2, 7]: 80% | inhibition at 70 µM [2, 7]: 95%

Oc1ccc2ccccc2c1SSc1c(O)ccc2ccccc12 [IPA-3]
MC, max concentration that can be used without cytotoxicity ([1]; SB cells, 4 h treatment): 40 µM | change of RBS entry efficiency compared with untreated cells [2, 8]: no statistically significant change

COC(=O)Nc1nc2ccc(C(=O)c3cccs3)cc2[nH]1 [nocodazole]
MC, max concentration that can be used without cytotoxicity ([1]; SB cells, 4 h treatment): 160 µM | inhibition at 1 µM [2, 7]: 59.4% | inhibition at 5 µM [2, 7]: 74% | inhibition at 50 µM [2, 7]: 81.3%

methyl-β-cyclodextrin [MβCD]
RBS entry blocked (inhibited) ([2]; 0.5 mM inhibitor, SB cells, ELISA): 63.6% | RBS entry blocked (inhibited) [2, 9]: 59.5% | RBS entry blocked (inhibited) ([2]; 2 mM inhibitor, SB cells, ELISA): 74.4%
